Assay results reported in US20160287696A1, “PAN POLLEN IMMUNOGENS AND METHODS AND USES FOR IMMUNE RESPONSE MODULATION” (LA JOLLA INSTITUTE FOR ALLERGY AND IMMUNOLOGY, priority 2013, published 2016).
“And” between values parts separate entries of the source, which are not always exact repeats. Equal entries are not always repeated.

Tested on: PBMCs from Phl p reactive donors
Assay: Cross-reactivity: IL-5 ELISPOT of PBMCs expanded 14 days with individual peptides, response to pollen extracts
Type: cell-based, human
Details: for Amb p % Reactivity: Amb p (weed) pollen extract; for Amb p % Reactivity / Ant o % Reactivity / Bet v % Reactivity / Cyn d % Reactivity / Lol p % Reactivity / Ole e % Reactivity / Phl p % Reactivity / Pla l % Reactivity / Poa p % Reactivity / Que a % Reactivity: reactivity of extract as percentage of reactivity to the peptide, PBMCs expanded 14 days with the peptide; for Ant o % Reactivity: Ant o (grass) pollen extract; for Bet v % Reactivity: Bet v (tree) pollen extract; for Cyn d % Reactivity: Cyn d (grass) pollen extract; for Lol p % Reactivity: Lol p (grass) pollen extract; for Ole e % Reactivity: Ole e (tree) pollen extract; for Phl p % Reactivity: Phl p (grass) pollen extract; for Pla l % Reactivity: Pla l (weed) pollen extract; for Poa p % Reactivity: Poa p (grass) pollen extract; for Que a % Reactivity: Que a (tree) pollen extract; for Controls, Irrelevant Pool: control: response to irrelevant pool of cells expanded with the peptide; for Controls, Relevant Pool: control: response to relevant pool of cells expanded with the peptide; for % Reactivity, Fra e: reactivity of Fra e (tree) pollen extract as percentage of the reactivity to the peptide, cells expanded with the peptide for 14 days
Protocol: For each peptide, TG allergic donors were selected that reacted to the peptide after expanding PBMCs in vitro with TG extract. […] Reponses to extracts and peptide pools are expressed as the relative fraction of the response to the peptide itself, and capped at 100%.
Each peptide was used to stimulate cells and cross reactivity was tested for extracts from each pollen species. The number of mismatches (# of mm) for each peptide compared to the pollen species and the reactivity of the extracts as a percentage of the reactivity compared to the peptide are shown.
PBMCs from Phl p reactive donors were expanded with individual PG+ peptides as well as peptides derived from major allergens of Phl p for 14 days (peptides shown in Table 10). For each peptide, the mismatch to a corresponding sequence in a non-grass pollen species or a pollen species other than Phl p were determined. Cytokine IL-5 responses were measured in response to the peptide itself, Phl p extract and extracts of the other pollen species. Reponses to extracts and peptide pools were expressed as the relative fraction of the response to the peptide itself and plotted as a function of conservation of the peptide in the different extracts (FIG. 1).

Sequence | Amb p % Reactivity | Ant o % Reactivity | Bet v % Reactivity | Cyn d % Reactivity | Lol p % Reactivity | Ole e % Reactivity | Phl p % Reactivity | Pla l % Reactivity | Poa p % Reactivity | Que a % Reactivity | Controls, Irrelevant Pool | Controls, Relevant Pool | % Reactivity, Fra e
AVMLTFDNAGMWNVR | 2% | 9% | 0% | 18% | 36% | 3% | 4% | 9% | 25% | 0% | 0 | 100 | 0%
DAYVATLTEALRVIA | – | 95% and 90% and 58% and 68% | – | – | – | – | – | – | – | 10% and 8% and 0% | – | 100 and 96 and 67 | –
DINVGFKAAVAAAAG | – | – | 0% and 2% | – | – | – | – | 0% and 3% and 10% | – | 2% and 0% | – | 53 and 100 and 95 | 0% and 4% and 1%
DIYNYMEPYVSKVDP | 37% | – | 0% | 83% | 100% | 82% | 30% | 17% | 23% | 0% | 49 | 100 | 49%
EEWEPLTKKGNVWEV | 49% | 100% | 3% | 7% | 100% | 13% | 100% | 23% | 100% | 1% | 32 | 100 | 76%
FKAAVAAAAGAPPAD | 15% | 62% | 22% | 31% | 68% | 39% | 2% | 2% | 26% | 6% | 23 | 100 | 38%
FPIVQRFLEGASSID | – | 89% and 100% | 5% and 0% | 22% and 39% | – | – | – | – | 95% and 100% | 0% | 100 | – | –
GELELQFRRVKCKYP | – | – | – | – | – | – | – | – | – | – | – | 88 and 53 and 92 and 100 | –
GSDEKNLALSIKYNK | 5% | 58% | 0% | 8% | 66% | 10% | 32% | 0% | 67% | 0% | 19 | 87 | 4%
IGSFFYFPSIGMQRT | 0% | 3% | 2% | 9% | 6% | 1% | 0% | 2% | 2% | 1% | 1 | 63 | 1%
INVGFKAAVAAAASV | – | – | 1% and 0% | – | – | – | – | 0% and 9% | – | 0% and 2% | – | 100 and 70 and 60 | –
LAKYKANWIEIMRIK | – | 14% | – | 47% | 33% | – | 6% | – | 22% | – | 19 | 31 | 14%
LIEKINAGFKAAVAA | – | – | 0% and 9% | 1% and 9% | 39% and 77% | 2% and 12% | – | – | 41% and 79% | 0% and 3% | 14 and 20 | 83 and 90 | –
MRNVFDDVVPADFKV | – | – | 2% and 3% and 1% and 0% | – | 88% and 82% and 73% and 72% and 100% | – | – | – | – | – | – | 81 and 94 and 98 and 100 | –
NAGFKAAVAAAAVVP | – | – | – | – | – | – | – | – | – | – | – | 77 and 100 | –
NGSQFFLCTAKTAWL | – | – | 1% | – | – | 4% and 5% | – | 1% and 2% | – | – | – | 100 and 89 | 3% and 0%
NLALSIKYNKEGDSM | 76% | 0% | 0% | 76% | 76% | 78% | 57% | 41% | 100% | 0% | 0 | 100 | 0%
NPMTVFWSKMAQSMT | 0% | 0% | 0% | 1% | 1% | 0% | 0% | 0% | 0% | 0% | 1 | 79 | 0%
NVFDEVIPTAFTVGK | – | – | 2% and 0% | 0% | 96% and 100% | – | 75% and 81% | – | – | 0% | 17 and 28 | 100 | –
NVWEVKSSKPLVGPF | – | – | 1% and 2% and 5% and 4% and 0% | – | – | – | – | – | – | – | – | 100 and 68 and 94 | 0%
